Values quoted from earlier work as cited in patent publication US6579533B1, “Bioabsorbable drug delivery system for local treatment and prevention of infections” (Bioasborbable Concepts, Ltd., priority 1999, dated 2003).

System: most microbial strains

O=C(O)c1cn(C2CC2)c2cc(N3CCNCC3)c(F)cc2c1=O [ciprofloxacin]
minimum inhibition concentration (MIC): < 2 µg/mL
